Measurements reported in PMC10388305, “Synthesis and Evaluation of a Monomethyl Auristatin E—Integrin αvβ6 Binding Peptide–Drug Conjugate for Tumor Targeted Drug Delivery” (Journal of Medicinal Chemistry, 2023).
“Also recorded” adds a separate entry of the source.

Legend:
DX3puro (−) cells [1] = experiment: WST-1 cell viability assay, DX3puro; type: cell-based; details: up to 5 nM
Description: (§1) Peptides NH2-2 and [^natCu]2 were not toxic to any cells (Figure 3, gray and black, respectively).
(§2) Cell viability was measured after treatment with either NH2-2, [^natCu]2, MMAE (free, non-targeted drug), NH2-PDC-1, or [^natCu]PDC-1 in DX3puroβ6 (+) and DX3puro (−) cells at variable concentrations up to 5 nM, and in BxPC-3 (+) and MIA PaCa-2 (−) cells at variable concentrations up to 250 nM, or with MMAE at concentrations up to 10 nM. Cells were seeded in a 96 well plate at a density of 6000 cells/well for DX3puroβ6 and DX3puro, and at a density of 10,000 cells/well for BxPC-3 and MIA PaCa-2. DMEM media was used for all cells except for BxPC-3 (RPMI 1640 media). Cells (n = 6–8 wells/cell type/compound) were treated with different concentrations of NH2-2, [^natCu]2, MMAE, NH2-PDC-1, or [^natCu]PDC-1 dissolved in the respective media, as well as their respective media (no treatment) for 48 h (37 °C, 5% CO2), after which the media was removed; cells were washed twice with media (200 μL) and re-incubated in media (37 °C, 5% CO2) for 24 h. The media was then removed and the WST-1 reagent was added to each well, and the cells were incubated for 2 h at 37 °C. The 96 well plates were read at 450 nm by a Multiscan Ascent microplate reader. The percent cell viability was normalized to untreated cells (set as 100% viability) for each cell line.

DX3puro (−) cells [2] = experiment: Caspase-3/7 activity assay (ApoTox-Glo), DX3puro; type: cell-based; details: 0.625 nM (MMAE 1 nM, staurosporine 100 nM), 24, 48, 72 h
Description: (§3) Caspase-3/7 activity was analyzed using an ApoTox-Glo Triplex Assay kit. Cells were seeded in a 96 well plate at the same density and using the same respective media as described for the WST-1 assay and incubated overnight (37 °C, 5% CO2). DX3puroβ6 and DX3puro cells were treated with 1 nM of MMAE (free, non-targeted drug) or 0.625 nM of the other compounds: NH2-2, [^natCu]2, NH2-PDC-1, or [^natCu]PDC-1. BxPC-3 and MIA PaCa-2 cells were treated with 10 nM of MMAE or 250 nM of the other compounds: NH2-2, [^natCu]2, NH2-PDC-1, or [^natCu]PDC-1. All cells were treated with 100 nM of staurosporine as a positive control.[24] Untreated cells (media) were used as a measure of endogenous caspase-3/7 activity (normalized to 1). Cells were treated (n = 4/cell line/compound/time) for 24, 48, or 72 h (37 °C, 5% CO2) prior to washing. After treatment, the media was removed, cells were washed, and Caspase-Glo 3/7 reagent was added, and incubated for 1 h at room temperature. Caspase-3/7 activity was analyzed by measuring luminescence with a Fluoroskan FL microplate reader according to the manufacturer’s protocol.

BxPC-3 (+) cells [3] = experiment: WST-1 cell viability assay, BxPC-3; type: cell-based; details: 48 h treatment + 24 h media, mean ± SD
Description: as §1, §2

MIA PaCa-2 (−) cells [4] = experiment: Caspase-3/7 activity assay (ApoTox-Glo), MIA PaCa-2; type: cell-based; details: 250 nM (MMAE 10 nM, staurosporine 100 nM), 24, 48, 72 h
Description: as §3

DX3puroβ6 (+) cells [5] = experiment: Caspase-3/7 activity assay (ApoTox-Glo), DX3puroβ6; type: cell-based; details: DX3puroβ6; 0.625 nM; 24 h; untreated = 1; n = 4
Description: as §3

BxPC-3 (+) cells [6] = experiment: Caspase-3/7 activity assay (ApoTox-Glo), BxPC-3; type: cell-based; details: 250 nM, 48 h, untreated = 1, n = 4
Description: as §3

MIA PaCa-2 (−) cells [7] = experiment: WST-1 cell viability assay, MIA PaCa-2; type: cell-based
Description: as §1, §2

DX3puroβ6 (+) cells [8] = experiment: WST-1 cell viability assay, DX3puroβ6; type: cell-based; details: for Fold more cytotoxic toward DX3puroβ6 (+) than DX3puro (−) cells: WST-1 EC50 ratio
Description: as §1, §2

DX3puro (−) tumors = experiment: Therapy study, DX3puro (−) tumor-bearing mice; type: in vivo
Description: (§4) Mice treated with [^natCu]PDC-1 had slower tumor growth compared to the groups receiving saline, non-drug bearing peptide [^natCu]2, or free, non-targeted MMAE (Figure 7). […] All mice in the groups treated with saline, non-drug bearing peptide [^natCu]2, or free, non-targeted MMAE had met an end point criterion (≥2 cm in any direction and/or tumor ulceration) by 56 days, 70 days, and 64 days from start of treatment, respectively, with all these groups having the same median survival of 37 days (Figure 7B).
Tumor xenografts were established by subcutaneous injection of either DX3puroβ6 or DX3puro cells (3 × 10^6 cells in 100 μL serum-free DMEM/animal) into the flank. The tumors were allowed to grow for 19 days before the start of treatment (day 0). […] Tumor volumes and body weights (to assess possible systemic toxicity) were measured starting on day 0, and once a week thereafter until the end of the study. Tumor volume (V) was determined according to the equation V = (π/6) × L × W × H, where L is the longest axis, W is the axis perpendicular to L, and H is perpendicular to the plane of L and W. End point determination criteria were: any axis >2 cm, active ulceration, or compromised health of the mouse (>20% loss of body weight from the start of the study). […] Survival curves were determined by Kaplan–Meier method.

DX3puroβ6 (+) tumors = experiment: Therapy study, DX3puroβ6 (+) tumor-bearing mice; type: in vivo
Description: as §4
Tumor xenografts were established by subcutaneous injection of either DX3puroβ6 or DX3puro cells (3 × 10^6 cells in 100 μL serum-free DMEM/animal) into the flank. The tumors were allowed to grow for 19 days before the start of treatment (day 0). Mice were treated with either (1) saline, (2) peptide ([^natCu]2), 6 mg/kg, 1.12 μmol/kg), (3) non-targeted drug (MMAE, 0.3 mg/kg, 0.42 μmol/kg), or (4) PDC ([^natCu]PDC-1, 6 mg/kg, 0.88 μmol/kg). Dosing of MMAE was 0.3 mg/kg as per maximum dose with no physiological response.[25] The [^natCu]PDC-1 treatment groups consisted of n = 10/tumor model, while all other groups (saline, [^natCu]2, and MMAE) consisted of n = 4/tumor model. All groups received four doses (on days 0, 3, 6, and 9) via i.v. tail vein injection of the above dose dissolved in saline (100 μL). The mean weights and standard deviation of each group was 25.9 ± 1.2 g (saline), 25.6 ± 1.5 g ([^natCu]2), 25.8 ± 2.5 g (MMAE), 24.9 ± 1.9 g ([^natCu]PDC-1, DX3puroβ6 tumors), and 25.7 ± 2.0 g ([^natCu]PDC-1, DX3puro tumors) at day 0. Tumor volumes and body weights (to assess possible systemic toxicity) were measured starting on day 0, and once a week thereafter until the end of the study. Tumor volume (V) was determined according to the equation V = (π/6) × L × W × H, where L is the longest axis, W is the axis perpendicular to L, and H is perpendicular to the plane of L and W. End point determination criteria were: any axis >2 cm, active ulceration, or compromised health of the mouse (>20% loss of body weight from the start of the study). All data are represented as the mean ± SD and are plotted beginning at day 0. Survival curves were determined by Kaplan–Meier method.

Compound | EC50 (DX3puro (−) cells [1]; 48 h treatment + 24 h media, mean ± SD) | Caspase-3/7 activity (in words) (DX3puro (−) cells [2]) | EC50 (BxPC-3 (+) cells [3]) | Caspase-3/7 activity (in words) (MIA PaCa-2 (−) cells [4]) | Caspase-3/7 activity, times higher (DX3puroβ6 (+) cells [5]) | Caspase-3/7 activity, fold increase (BxPC-3 (+) cells [6]) | EC50 (MIA PaCa-2 (−) cells [7]; MIA PaCa-2 (−), 48 h treatment + 24 h media, up to 250 nM (MMAE up to 10 nM), mean ± SD) | EC50 (DX3puroβ6 (+) cells [8]; DX3puroβ6 (+), 48 h treatment + 24 h media, mean ± SD) | Fold more cytotoxic toward DX3puroβ6 (+) than DX3puro (−) cells (DX3puroβ6 (+) cells [8]) | Cytotoxicity (in words), WST-1 (DX3puro (−) cells [1]) | Median survival (DX3puro (−) tumors; 6 mg/kg i.v. on days 0, 3, 6, 9, n = 10) | Time at which all mice had reached an end point (DX3puro (−) tumors; from start of treatment) | Median survival (DX3puroβ6 (+) tumors; DX3puroβ6 (+) tumors, 6 mg/kg i.v. on days 0, 3, 6, 9, n = 10) | Mean tumor volume, times smaller than all other treatment groups (saline, [natCu]2, MMAE) (DX3puroβ6 (+) tumors; day 37) | Mean tumor volume, times smaller than equally treated DX3puro (−) tumors (DX3puroβ6 (+) tumors; day 37, P = 0.0099) | Body weight / systemic toxicity (in words) (DX3puroβ6 (+) tumors; four doses of 6 mg/kg i.v., body weight weekly, all groups compared, 6 mg/kg) | Median survival, fold longer than other treatment groups (DX3puroβ6 (+) tumors; vs saline, [natCu]2, MMAE (37 days)) | Concentration required for noticeable cytotoxic effects (MIA PaCa-2 (−) cells [7]; MIA PaCa-2, WST-1)
CC[C@H](C)[C@@H]([C@@H](CC(=O)N1CCC[C@H]1[C@H](OC)[C@@H](C)C(=O)N[C@H](C)[C@@H](O)c1ccccc1)OC)N(C)C(=O)[C@@H](NC(=O)[C@H](C(C)C)N(C)C(=O)OCc1ccc(NC(=O)[C@H](CCCNC(N)=O)NC(=O)[C@@H](NC(=O)CCOCCOCCNC(=O)CCN2C(=O)CC(SC[C@H](N)C(=O)NCCOCCOCCOCCOCCOCCOCCOCCOCCOCCOCCOCCOCCOCCOCCOCCOCCOCCOCCOCCOCCOCCOCCOCCOCCOCCOCCOCCOCCC(=O)N[C@@H](CC(N)=O)C(=O)N[C@@H](C)C(=O)N[C@H](C(=O)N3CCC[C@H]3C(=O)N[C@@H](CC(N)=O)C(=O)N[C@@H](CC(C)C)C(=O)N[C@@H](CCCNC(=N)N)C(=O)NCC(=O)N[C@@H](CC(=O)O)C(=O)N[C@@H](CC(C)C)C(=O)N[C@@H](CCC(N)=O)C(=O)N[C@H](C(=O)N[C@@H](CC(C)C)C(=O)N[C@@H](C)C(=O)N[C@@H](CCC(N)=O)C(=O)N[C@@H](CCCNC(=N)N)C(=O)N[C@H](C(=O)N[C@@H](C)C(=O)N[C@@H](CCCNC(=N)N)C(=O)N[C@H](C(=O)NCCOCCOCCOCCOCCOCCOCCOCCOCCOCCOCCOCCOCCOCCOCCOCCOCCOCCOCCOCCOCCOCCOCCOCCOCCOCCOCCOCCOCCC(N)=O)[C@@H](C)O)C(C)C)C(C)C)C(C)C)C2=O)C(C)C)cc1)C(C)C (some centres unmarked) [NH2-PDC-1] | > 5 nM | no observed change | 222 ± 114 nM | no significant increase | > 5 times | > 3 fold | > 250 nM | 0.159 ± 0.014 nM | > 31 fold | – | – | – | – | – | – | – | – | –
CC[C@H](C)[C@@H]([C@@H](CC(=O)N1CCC[C@H]1[C@H](OC)[C@@H](C)C(=O)N[C@H](C)[C@@H](O)c1ccccc1)OC)N(C)C(=O)[C@@H](NC(=O)[C@H](C(C)C)N(C)C(=O)OCc1ccc(NC(=O)[C@H](CCCNC(N)=O)NC(=O)[C@@H](NC(=O)CCOCCOCCNC(=O)CCN2C(=O)CC(SC[C@H](NC(=O)CN3CCN(CC(=O)O)CCN(CC(=O)O)CCN(CC(=O)O)CC3)C(=O)NCCOCCOCCOCCOCCOCCOCCOCCOCCOCCOCCOCCOCCOCCOCCOCCOCCOCCOCCOCCOCCOCCOCCOCCOCCOCCOCCOCCOCCC(=O)N[C@@H](CC(N)=O)C(=O)N[C@@H](C)C(=O)N[C@H](C(=O)N3CCC[C@H]3C(=O)N[C@@H](CC(N)=O)C(=O)N[C@@H](CC(C)C)C(=O)N[C@@H](CCCNC(=N)N)C(=O)NCC(=O)N[C@@H](CC(=O)O)C(=O)N[C@@H](CC(C)C)C(=O)N[C@@H](CCC(N)=O)C(=O)N[C@H](C(=O)N[C@@H](CC(C)C)C(=O)N[C@@H](C)C(=O)N[C@@H](CCC(N)=O)C(=O)N[C@@H](CCCNC(=N)N)C(=O)N[C@H](C(=O)N[C@@H](C)C(=O)N[C@@H](CCCNC(=N)N)C(=O)N[C@H](C(=O)NCCOCCOCCOCCOCCOCCOCCOCCOCCOCCOCCOCCOCCOCCOCCOCCOCCOCCOCCOCCOCCOCCOCCOCCOCCOCCOCCOCCOCCC(N)=O)[C@@H](C)O)C(C)C)C(C)C)C(C)C)C2=O)C(C)C)cc1)C(C)C (some centres unmarked) [[^natCu]PDC-1, metal not drawn] | – | no observed change | – | slight increase | > 5 times | > 3 fold | – | – | > 86 fold | no observable cytotoxic effects | 49 days | 95 days | 77 days | > 4 times | > 2.75 times | No significant differences; also recorded: did not cause adverse systemic side-effects | > 2 fold | ≥ 250 nM
